Results reported in ChEMBL document CHEMBL1201862, “PubChem BioAssay data set” (2004).
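Dose response: 5 concentrations. Exposure: 48 h. Format: 96-well plates. Endpoint: linear interpolation; highest concentration if not reached. Abbreviation: GI50, concentration required for 50% inhibition of growth.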 Calls of active or inactive are those of the source. Cut-off read from the data, not from the text of the source: active = GI50 up to about 1.1 µM and inactive = higher.

How the values were obtained:
Experiment in all cases: NCI tumour cell line growth inhibition, 48 h
786-0 = system: 786-0
ACHN = system: ACHN
HCC 2998 = system: HCC 2998
HCT-15 = system: HCT-15
HL-60 = system: HL-60
HOP-92 = system: HOP-92
KM12 = system: KM12
LOX IMVI = system: LOX IMVI
MDA-MB-435 = system: MDA-MB-435
MOLT-4 = system: MOLT-4
NCI-H522 = system: NCI-H522
RPMI-8226 = system: RPMI-8226
SF-295 = system: SF-295
SK-MEL-2 = system: SK-MEL-2
SNB-19 = system: SNB-19
SNB-75 = system: SNB-75
SR = system: SR
U-251 = system: U-251
OVCAR-3 = system: OVCAR-3
SF-268 = system: SF-268

SMILES | GI50 (786-0) | GI50 (ACHN) | GI50 (HCC 2998) | GI50 (HCT-15) [µM] | GI50 (HL-60) | GI50 (HOP-92) | GI50 (KM12) | GI50 (LOX IMVI) | GI50 (MDA-MB-435) | GI50 (MOLT-4) | GI50 (NCI-H522) | GI50 (RPMI-8226) | GI50 (SF-295) | GI50 (SK-MEL-2) | GI50 (SNB-19) | GI50 (SNB-75) | GI50 (SR) | GI50 (U-251) | GI50 (OVCAR-3) | GI50 (SF-268)
O=c1cc(N2CCCC2)[nH]c(=O)n1Cc1ccccc1 | > 100 µM (inactive) | > 100 µM (inactive) | 8.55 µM (inactive) | > 100 | > 100 µM (inactive) | > 100 µM (inactive) | > 100 µM (inactive) | > 100 µM (inactive) | > 100 µM (inactive) | > 100 µM (inactive) | > 100 µM (inactive) | > 100 µM (inactive) | > 100 µM (inactive) | > 100 µM (inactive) | > 100 µM (inactive) | > 100 µM (inactive) | > 100 µM (inactive) | > 100 µM (inactive) | – | –
Cc1cc(S(=O)(=O)Nc2n[nH]c(-c3ccc(Cl)cn3)n2)c(S)cc1Cl | 47.6 µM (inactive) | 32.9 µM (inactive) | 57.5 µM (inactive) | 70.1 | 42 µM (inactive) | 9.04 µM (inactive) | 36.3 µM (inactive) | > 100 µM (inactive) | 43.1 µM (inactive) | 40.6 µM (inactive) | 46.1 µM (inactive) | > 100 µM (inactive) | – | 47.5 µM (inactive) | 30.1 µM (inactive) | 80.9 µM (inactive) | 47.8 µM (inactive) | 39 µM (inactive) | 45.6 µM (inactive) | 54.7 µM (inactive)
CC(=O)O[C@@H]1C=C(C)[C@H](CBr)O[C@@]2(C)CC[C@H](Br)C(C)(C)[C@H]12 | > 100 µM (inactive) | > 100 µM (inactive) | > 100 µM (inactive) | > 100 | 91.2 µM (inactive) | > 100 µM (inactive) | > 100 µM (inactive) | > 100 µM (inactive) | > 100 µM (inactive) | 77.6 µM (inactive) | 38.2 µM (inactive) | > 100 µM (inactive) | > 100 µM (inactive) | > 100 µM (inactive) | > 100 µM (inactive) | > 100 µM (inactive) | 41.2 µM (inactive) | > 100 µM (inactive) | – | > 100 µM (inactive)
CCC(=O)O[C@H]1CC[C@H]2[C@@H]3CCC4=C/C(=N/NC(=O)c5cccc6c(=O)c7ccccc7[nH]c56)CC[C@]4(C)[C@H]3CC[C@]12C | 5.11 µM (inactive) | > 25 µM (inactive) | > 25 µM (inactive) | > 25 | – | > 25 µM (inactive) | > 25 µM (inactive) | 10.1 µM (inactive) | > 25 µM (inactive) | > 25 µM (inactive) | > 25 µM (inactive) | > 25 µM (inactive) | > 25 µM (inactive) | > 25 µM (inactive) | > 25 µM (inactive) | > 25 µM (inactive) | > 25 µM (inactive) | > 25 µM (inactive) | > 25 µM (inactive) | > 25 µM (inactive)
COC(=O)/C(C#N)=C(\Nc1ccccc1)N1CCOCC1 | > 100 µM (inactive) | > 100 µM (inactive) | > 100 µM (inactive) | > 100 | > 100 µM (inactive) | > 100 µM (inactive) | – | > 100 µM (inactive) | > 100 µM (inactive) | > 100 µM (inactive) | > 100 µM (inactive) | > 100 µM (inactive) | > 100 µM (inactive) | > 100 µM (inactive) | > 100 µM (inactive) | > 100 µM (inactive) | > 100 µM (inactive) | > 100 µM (inactive) | > 100 µM (inactive) | > 100 µM (inactive)
N#Cc1c(N)oc(-c2ccc([N+](=O)[O-])cc2)c1C#N | 30.1 µM (inactive) | 27.2 µM (inactive) | 32.7 µM (inactive) | 23.4 | > 100 µM (inactive) | 24.1 µM (inactive) | 72.6 µM (inactive) | 44.2 µM (inactive) | 47.4 µM (inactive) | – | 21.4 µM (inactive) | 33.3 µM (inactive) | 19.2 µM (inactive) | 24.3 µM (inactive) | 27.5 µM (inactive) | 17.7 µM (inactive) | 54.2 µM (inactive) | 39.4 µM (inactive) | – | 19.5 µM (inactive)
O/N=C1\C/C(=N\O)c2c(Br)sc(Br)c21 | 36 µM (inactive) | > 100 µM (inactive) | 23.7 µM (inactive) | 17.3 | 27.4 µM (inactive) | 46 µM (inactive) | 32.6 µM (inactive) | 18.8 µM (inactive) | 41.8 µM (inactive) | 29.2 µM (inactive) | 17.7 µM (inactive) | – | > 100 µM (inactive) | 43.4 µM (inactive) | – | 17.3 µM (inactive) | 8.99 µM (inactive) | 43.2 µM (inactive) | 30.6 µM (inactive) | 17.4 µM (inactive)
C/C(=N\Nc1nc2ccccc2n1C)c1ccc2ccccc2n1 | 1.99 µM (inactive) | – | 0.256 µM (active) | – | 0.774 µM (active) | 2.48 µM (inactive) | 0.528 µM (active) | 1.64 µM (inactive) | 4.24 µM (inactive) | 0.414 µM (active) | 0.416 µM (active) | – | 2.21 µM (inactive) | 6.56 µM (inactive) | 4.66 µM (inactive) | 7.24 µM (inactive) | 0.51 µM (active) | 2 µM (inactive) | 0.0489 µM (active) | 2.87 µM (inactive)
CCOP(=O)(C=C=C1CCC2[C@@H]3CCc4cc(OC)ccc4C3CC[C@]12C)OCC (stereo partly drawn) | 12.3 µM (inactive) | 10.3 µM (inactive) | 12.1 µM (inactive) | 10.9 | 0.0222 µM (active) | 10.1 µM (inactive) | 12.4 µM (inactive) | 9.06 µM (inactive) | 12.4 µM (inactive) | – | 4.16 µM (inactive) | – | 5.6 µM (inactive) | 12.9 µM (inactive) | 13.6 µM (inactive) | 12.7 µM (inactive) | 1 µM (active) | 11 µM (inactive) | 10.2 µM (inactive) | 11.9 µM (inactive)
CCOP(=O)(CN1CCNCCNCC1)OCC | > 100 µM (inactive) | > 100 µM (inactive) | > 100 µM (inactive) | > 100 | 92.7 µM (inactive) | > 100 µM (inactive) | > 100 µM (inactive) | > 100 µM (inactive) | > 100 µM (inactive) | > 100 µM (inactive) | > 100 µM (inactive) | > 100 µM (inactive) | > 100 µM (inactive) | > 100 µM (inactive) | > 100 µM (inactive) | 26.6 µM (inactive) | > 100 µM (inactive) | > 100 µM (inactive) | > 100 µM (inactive) | –
Cc1cc2c(cc1C)C(=O)C1(C2)Cc2cc3c(cc2C1=O)CCC3 (stereo not drawn) | > 100 µM (inactive) | > 100 µM (inactive) | > 100 µM (inactive) | > 100 | > 100 µM (inactive) | > 100 µM (inactive) | > 100 µM (inactive) | – | > 100 µM (inactive) | > 100 µM (inactive) | > 100 µM (inactive) | > 100 µM (inactive) | > 100 µM (inactive) | > 100 µM (inactive) | > 100 µM (inactive) | > 100 µM (inactive) | > 100 µM (inactive) | > 100 µM (inactive) | > 100 µM (inactive) | > 100 µM (inactive)
